# Values of other authors, collected in patent publication US20090318526A1, “Use of cannabinoid receptor agonists as hypothermia inducing drugs for the treatment of ischemia” (priority 2006, published 2009).
# Test system: Sprague-Dawley rats
# Details: Leker et al. [37]
compound,measurement,setting,value
"CCCCCCC(C)(C)c1cc(O)c2c(c1)OC(C)(C)[C@@H]1CC=C(CO)C[C@@H]21 [HU-210, (−)-11-OH-delta-8-tetrahydrocannabinoldimethylheptyl]",induction of hypothermia,Sprague-Dawley rats,did provide hypothermia
same,protection against ischemic damages,Sprague-Dawley rats,protection against ischemic damages
same,side effects due to the treatment,rats,hemodynamic and behavioural side effects
